This assay deals with NF-κB mediated transcription. The assay can be described thus: NF-κB driven β-lactamase reporter assay in ECV-304 NF-κB.βlaZ cells (AURORA CCF2 fluorescence). The assay is classed as cell-based, human. As to conditions: 10 μM compound, ECV-304 NF-κB.βlaZ cells stimulated with 10 ng/mL TNF-α or 100 pg/mL IL-1β, 6 hours at 37° C., inhibition of maximum blue/green ratio; for inhibition at 10 µM: Homo sapiens, read-out: Percent Inhibition at 10 μM. From the text: Introduction: Described below is an in vitro, cell-based, high throughput screening assay that reliably identifies inhibitors of NF-κB mediated transcription.
The assay takes advantage of AURORA (Aurora Bioscience Corporation, La Jolla, Calif.) fluorescence technology. Endothelial cell vein-304 (ECV-304) cells, an endothelial-like immortalized cell type, may be stably transfected with a plasmid vector containing the cDNA for the enzyme β-lactamase (under the control of a basal promoter, Stratagene pNFκB-luc vector) and 5 copies of an human immunodeficiency virus-1 (HIV-1) NF-κB binding site. ECV-304 cells are described by Takahashi K. et al. in Spontaneous Transformation and Immobilization of Human Endothelial Cells, In Vitro Cell. Dev. Biol. 1990;25:265-274. Activation of NF-κB in ECV-304 by cytokines such as TNF-α or interleuken-1 beta (IL-1β) results in the production of β-lactamase, which cleaves a green fluorescent substrate (excitation/emission wavelengths 395 nm1530 nm) to yield a blue fluorescent product (excitation/emission wavelengths 395 nm/460 nm). Visually, the uncleaved green fluorescent substrate is sequestered intracellularly and emits green fluorescence, while the cleaved product emits blue fluorescence. Fluorescence is quantitated spectrophotometrically, and the spectral intensity of blue fluorescence versus green fluorescence can be used to calculate the degree of activation of NF-κB.
The assay was performed as outlined here and described in detail below. ECV-304 cells permanently transfected with the NF-κB driven β-lactamase gene (ECV-304 NF-κB.βlaZ) were plated in clear-bottom, black 96-well plates (1.25×10^4 cells/well) in media-199 (M-199) media containing 2% fetal bovine serum (FBS). […] The AURORA fluorescent disclosing reagent was then added. After one additional hour, the plates were read in a fluorometer at the blue 395 nm/460 nm (excitation/emission) and green 395 nm/530 nm wavelengths. Then the blue/green emission ratio was calculated. […] An IC50 for said sulfonylaminocarbonyl derivative was determined from a dose-response curve. This assay was designed to be optionally run in either high or low throughput screening modes.
Five copies of the HIV-1 NF-κB binding site (5′-[…]-3′) along with a TATA box were inserted into the EcorRI/BamHI sites of plasmid pMCRBlaZ to create plasmid p5×KBBlaZ, which procedure is illustrated in Scheme 1 below. [formula]
Cells were selected for antibiotic resistance with Zeocin for approximately 2 weeks. After the stable population had been expanded to a significant number of cells, it was stimulated with IL-1β and stained with AURORA CCF2 dye, a membrane permeant, intracellularly-trapped, fluorescent substrate. Cells that fluoresced blue (indicating a positive response of the NF-κB/β-lactamase reporter to stimulation by IL-1β) in the stimulated/stained population were then sorted by flow cytometry into a pool. The pool was expanded and stained with CCF2, and then the cells that fluoresced green from this unstimulated population (indicating a low background of the NF-κB/β-lactamase reporter construct) were cloned by flow cytometry after adding 1 cell per well in 96-well plates. Clones were allowed to expand. Each cloned cell line was then examined for fold stimulation after stimulation with IL-1β using a CCF2 reporter assay, and these stimulated cells were compared to unstimulated cells.
Cells: ECV-304 NF-κB β-Lactamase clone 1E8
Inhibitors: Prepared stock solutions of aminosulfonyl derivatives at 10 mM concentration in DMSO;
c) Added 10 μL of B into appropriate well in assay plate (the final concentration of drug is 10 μM), and […]
(In a reporter assay the amount or activity of a reporter protein is the signal.)

Molecules are shown by their SMILES. Where two headings read alike, the source gives them in different places.

In the case of `COC(=O)C(C)(Cc1c[nH]c2ccccc12)NS(=O)(=O)NC(=O)OC1C2CC3CC(C2)CC1C3` (racemic) [Example 101, DL-Tryptophan, α-methyl-N-[[[(tricyclo[3.3.1.1^3,7]dec-2-yloxy)-carbonyl]amino]sulfonyl]-, methyl ester], the “Percent Inhibition at 10 μM” value was less than 10%.

As to `CC1(C)OCC(NC(=O)NS(=O)(=O)NC2COC(C)(C)OC2c2ccccc2)C(c2ccccc2)O1` (single isomer, unassigned) [Example 105, Urea, N-(2,2-dimethyl-4-phenyl-1,3-dioxan-5-yl)-N′-[[(2,2-dimethyl-4-phenyl-1,3-dioxan-5-yl)amino]sulfonyl]-, stereoisomer], the “Percent Inhibition at 10 μM” value is less than 10%.

With `CC(C)c1cccc(C(C)C)c1OC(=O)NS(=O)(=O)NC(c1ccccc1)c1ccccc1` [Example 1, Carbamic acid, [[(diphenylmethyl)amino]sulfonyl]-, 2,6-bis(1-methylethyl)phenyl ester], the inhibition at 10 µM is 24.8%.

Take `CC(C)(C)c1cccc(C(C)(C)C)c1OC(=O)NS(=O)(=O)NC(c1ccccc1)c1ccccc1` [Example 2, Carbamic acid, [[(diphenylmethyl)amino]sulfonyl]-, 2,6-bis(1,1-dimethylethyl)phenyl ester]: the inhibition at 10 µM was 37.2%.

For `Cc1cc(C(C)(C)C)c(OC(=O)NS(=O)(=O)NC(c2ccccc2)c2ccccc2)c(C(C)(C)C)c1` [Example 3, Carbamic acid, [[(diphenylmethyl)amino]sulfonyl]-, 2,6-bis(l,1-dimethylethyl)-4-methylphenyl ester], the “Percent Inhibition at 10 μM” value is 79.34%.

As to `CC(C)c1cccc(C(C)C)c1NS(=O)(=O)NC(=O)Oc1c(C(C)C)cccc1C(C)C` [Example 4, Carbamic acid, [[[2,6-bis(1-methylethyl)phenyl]amino]sulfonyl]-, 2,6-bis(1-methylethyl)phenyl ester], the inhibition at 10 µM was 35.3%.

Take `CC(C)c1cccc(C(C)C)c1NS(=O)(=O)NC(=O)Oc1c(C(C)(C)C)cccc1C(C)(C)C` [Example 5, Carbamic acid, [[[2,6-bis(1-methylethyl)phenyl]amino]sulfonyl]-, 2,6-bis(1,1-dimethylethyl)phenyl ester]: the inhibition at 10 µM stood at 56.4%.

For `Cc1cc(C(C)(C)C)c(OC(=O)NS(=O)(=O)Nc2c(C(C)C)cccc2C(C)C)c(C(C)(C)C)c1` [Example 6, Carbamic acid, [[[2,6-bis(1-methylethyl)phenyl]amino]sulfonyl]-, 2,6-bis(1,1-dimethylethyl)-4-methylphenyl ester], the inhibition at 10 µM was 64.9%.

As to `CC(C)c1cccc(C(C)C)c1NC(=O)NS(=O)(=O)Nc1c(C(C)C)cccc1C(C)C` [Example 7, Urea, N-[2 ,6-bis(1-methylethyl)phenyl]-N′-[[[2,6-bis(1-methylethyl)phenyl]-amino]sulfonyl]-], the “Percent Inhibition at 10 μM” value stood at 37.04%.

In the case of `CC(C)c1cccc(C(C)C)c1NC(=O)NS(=O)(=O)NC(c1ccccc1)c1ccccc1` [Example 8, Urea, N-[2,6-bis(1-methylethyl)phenyl]-N′-[[(diphenylmethyl)amino]-sulfonyl]-], where the note is “ECV-304, 6 h”, the inhibition at 10 µM is less than 10%.

For `CC(C)c1cccc(C(C)C)c1NC(=O)NS(=O)(=O)NCC(c1ccccc1)c1ccccc1` [Example 9, Urea, N-[2,6-bis(1-methylethyl)phenyl]-N′-[[(2,2-diphenylethyl)amino]-sulfonyl]-], the inhibition at 10 µM (ECV-304, 6 h) amounted to 33.1%.

Regarding `CC(C)c1cccc(C(C)C)c1OC(=O)NS(=O)(=O)NCC(c1ccccc1)c1ccccc1` [Example 10, Carbamic acid, [[(2,2-diphenylethyl)amino]sulfonyl]-, 2,6-bis(1-methylethyl)-phenyl ester], the inhibition at 10 µM turned out to be 39.7%.

Consider `CC(C)(C)c1cccc(C(C)(C)C)c1OC(=O)NS(=O)(=O)NCC(c1ccccc1)c1ccccc1` [Example 11, Carbamic acid, [[(2,2-diphenylethyl)amino]sulfonyl]-, 2,6-bis(1,1-dimethylethyl)-phenyl ester], for which the inhibition at 10 µM came to 50.1%.

As to `Cc1cc(C(C)(C)C)c(OC(=O)NS(=O)(=O)NCC(c2ccccc2)c2ccccc2)c(C(C)(C)C)c1` [Example 12, Carbamic acid, [[(2,2-diphenylethyl)amino]sulfonyl]-, 2,6-bis(1,1-dimethylethyl)-4-methylphenyl ester], the inhibition at 10 µM amounted to 57%.

As to `CC(C)c1cccc(C(C)C)c1OC(=O)NS(=O)(=O)Nc1ccccc1` [Example 13, Carbamic acid, [(phenylamino)sulfonyl]-, 2,6-bis(1-methylethyl)phenyl ester], the inhibition at 10 µM is less than 10%.

Take `CC(C)(C)c1cc(O)cc(C(C)(C)C)c1OC(=O)NS(=O)(=O)Nc1ccccc1` [Example 14, Carbamic acid, [(phenylamino)sulfonyl]-, 2,6-bis(1,1-dimethylethyl)-4-hydroxyphenyl ester]: the inhibition at 10 µM amounted to 13.8%.

In the case of `CC(C)(C)c1cccc(C(C)(C)C)c1OC(=O)NS(=O)(=O)Nc1ccccc1` [Example 15, Carbamic acid, [(phenylamino)sulfonyl]-, 2,6-bis(1,1-dimethylethyl)-phenyl ester], the inhibition at 10 µM amounted to 12.6%.

As to `CC(C)c1cccc(C(C)C)c1OC(=O)NS(=O)(=O)Nc1nc2ccccc2[nH]1` [Example 16, Carbamic acid, [(1H-benzimdazol-2-ylamino)sulfonyl]-, 2,6-bis(1-methylethyl)-phenyl ester], the “Percent Inhibition at 10 μM” value is given as less than 10%.

Consider `CC(C)c1cccc(C(C)C)c1NC(=O)NS(=O)(=O)N(Cc1ccccc1)Cc1ccccc1` [Example 17, N-[2,6-bis(1-methylethyl)phenyl]-N′-[[bis(phenylmethyl)amino]-sulfonyl]-urea], for which the inhibition at 10 µM (ECV-304, 6 h) was found to be 43.8%.

Regarding `CC(C)c1cccc(C(C)C)c1NS(=O)(=O)NC(=O)NC(c1ccccc1)c1ccccc1` [Example 18, N-[[[2,6-bis(1-methylethyl)phenyl]amino]sulfonyl]-N′-(diphenylmethyl)-urea], for the setting “ECV-304, 6 h”, the inhibition at 10 µM turned out to be 35.9%.

With `CC(C)c1cccc(C(C)C)c1NC(=O)NS(=O)(=O)NC1c2ccccc2-c2ccccc21` [Example 19, N-[2,6-bis(1-methylethyl)phenyl]-N′-[(9H-fluoren-9-ylamino)-sulfonyl]-urea], the inhibition at 10 µM (ECV-304, 6 h) is 20.2%.

Take `CC(C)c1cccc(C(C)C)c1NC(=O)NS(=O)(=O)N(C(C)C)C(C)C` [Example 20, N-[2,6-bis(1-methylethyl)phenyl]-N′-[[bis(1-methylethyl)amino]-sulfonyl]-urea]: the inhibition at 10 µM (ECV-304, 6 h) was less than 10%.

Regarding `CCCCN(CCCC)S(=O)(=O)NC(=O)Nc1c(C(C)C)cccc1C(C)C` [Example 21, N-[2,6-bis(1-methylethyl)phenyl]-N′-[(dibutylamino)sulfonyl]-urea], the inhibition at 10 µM (ECV-304, 6 h) was 29.4%.

As to `CC(C)c1cccc(C(C)C)c1NC(=O)NS(=O)(=O)N(Cc1ccccc1)C(C)C` [Example 22, N-[2,6-bis(1-methylethyl)phenyl]-N′-[[(1-methylethyl)-(phenylmethyl)amino]-sulfonyl]-urea], where the note is “ECV-304, 6 h”, the inhibition at 10 µM was 20.2%.

In the case of `CCCCCCCCN(CCCCCCCC)S(=O)(=O)NC(=O)Nc1c(C(C)C)cccc1C(C)C` [Example 23, N-[2,6-bis(1-methylethyl)phenyl]-N′-[(dioctylamino)sulfonyl]-urea], the inhibition at 10 µM (ECV-304, 6 h) is 38.7%.

For the compound `CC(C)(C)c1cccc(C(C)(C)C)c1OC(=O)NS(=O)(=O)N(Cc1ccccc1)Cc1ccccc1` [Example 24, Carbamic acid, [[bis(phenylmethyl)amino]sulfonyl]-, 2,6-bis(1,1-dimethylethyl)-phenyl ester], the inhibition at 10 µM was 31%.

In general, inhibition refers to the drop in the measured response relative to a control, in per cent.
